Measurements published in ChEMBL document CHEMBL4177739, “Design, synthesis and structure-activity relationship evaluation of novel LpxC inhibitors as Gram-negative antibacterial agents” (Bioorg Med Chem Lett, 2018).
≈ marks a conversion by molar mass, not a printed value.

Columns and labels:
[1] = system: Pseudomonas aeruginosa PA14; assay: Inhibition of LpxC in Pseudomonas aeruginosa PA14 assessed as reduction in microbial growth incubated for 22 hrs by MTT assay
[2] = molecular target: T1, UDP-3-O-acyl-N-acetylglucosamine deacetylase (Escherichia coli K-12) (UniProt P0A725); assay: Inhibition of LpxC in Escherichia coli DH5[alpha] assessed as reduction in microbial growth incubated for 22 hrs by MTT assay
T1 sequence (whole entry): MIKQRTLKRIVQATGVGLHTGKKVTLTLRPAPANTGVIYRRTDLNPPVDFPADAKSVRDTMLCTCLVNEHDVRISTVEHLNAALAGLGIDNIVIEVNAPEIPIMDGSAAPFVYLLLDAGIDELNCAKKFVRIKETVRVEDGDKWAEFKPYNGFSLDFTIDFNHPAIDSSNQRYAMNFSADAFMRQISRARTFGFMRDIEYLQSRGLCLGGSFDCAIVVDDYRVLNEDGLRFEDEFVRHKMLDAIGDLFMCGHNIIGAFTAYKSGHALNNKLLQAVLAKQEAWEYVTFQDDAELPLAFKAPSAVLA

[3] = molecular target: T1, UDP-3-O-acyl-N-acetylglucosamine deacetylase (Escherichia coli K-12); assay: Inhibition of LpxC in Escherichia coli AB1157 assessed as reduction in microbial growth incubated for 22 hrs by MTT assay
[4] = Elimination half life in human liver microsomes at 0.1 umol/L in presence of NADPH by LC/MS/MS method; assay type: ADME, microsome; details: read-out: beta t1/2
[5] = Elimination half life in mouse liver microsomes at 0.1 umol/L in presence of NADPH by LC/MS/MS method; assay type: ADME, microsome; details: read-out: beta t1/2
[6] = Intrinsic clearance in human liver microsomes assessed as per gram protein at 0.1 umol/L in presence of NADPH by LC/MS/MS method; assay type: ADME, microsome; details: 0.1 µM
[7] = Intrinsic clearance in mouse liver microsomes assessed as per gram protein at 0.1 umol/L in presence of NADPH by LC/MS/MS method; assay type: ADME, microsome; design: unit not given here; details: 0.1 µM
[8] = molecular target: T2, UDP-3-O-acyl-N-acetylglucosamine deacetylase (Pseudomonas aeruginosa (strain ATCC 15692 / PAO1 / 1C / PRS 101 / LMG12228)) (UniProt P47205)
T2 sequence (whole entry): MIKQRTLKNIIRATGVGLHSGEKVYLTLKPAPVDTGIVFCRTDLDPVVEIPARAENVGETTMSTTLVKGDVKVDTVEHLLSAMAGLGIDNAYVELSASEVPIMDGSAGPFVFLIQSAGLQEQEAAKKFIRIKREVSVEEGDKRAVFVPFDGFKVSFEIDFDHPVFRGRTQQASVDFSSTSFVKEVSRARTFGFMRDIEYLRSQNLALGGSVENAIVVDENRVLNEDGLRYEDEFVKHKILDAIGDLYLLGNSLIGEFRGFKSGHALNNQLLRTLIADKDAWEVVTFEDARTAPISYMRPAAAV

[9] = Stability in human liver microsomes assessed as drug netabolism at 0.1 umol/L after 60 mins in presence of NADPH by LC/MS/MS method; assay type: ADME, microsome; details: 1 h, 0.1 µM

Compound | MIC [1] [µg/mL] | MIC [2] [µg/mL] | MIC [3] [µg/mL] | half-life at 0.1 µM [4] [h] | half-life at 0.1 µM [5] [h] | intrinsic clearance [6] [mL/min/g] | intrinsic clearance in liver microsomes [7] | MIC [8] [µg/mL] | Stability [9]
CC(C)(N)[C@H](NC(=O)c1ccc(C#CC#CC2CC2)cc1)C(=O)NO | 0.078 | 0.012 | 0.039 | 56.9 | 3.43 | 1 | 10 | 0.156 (≈ 0.46 µM) | –
C[C@@H](O)[C@H](NC(=O)[C@@H]1CN(c2ccc(-c3ccccc3)cc2)C(=O)O1)C(=O)NO | > 256 | > 256 | > 256 | – | – | – | – | > 256 | –
CC(C)(N)[C@H](NC(=O)c1ccc(C#CC#CC2CC2)cc1F)C(=O)NO | 0.31 | 0.04 | 0.078 | – | 4 | 0 | 9 | 0.625 (≈ 1.75 µM) | Stable
C[C@@H](O)[C@H](NC(=O)[C@H]1CN(c2ccc(C#Cc3ccccc3)cc2)C(=O)O1)C(=O)NO | > 256 | > 256 | > 256 | – | – | – | – | > 256 | –
C[C@@H](O)[C@H](NC(=O)c1ccc(C#CC#CC2CC2)cc1O)C(=O)NO | 0.625 | 0.156 | 0.078 | 4.55 | 3.88 | 8 | 9 | 0.625 (≈ 1.83 µM) | –
C[C@@H](O)[C@H](NC(=O)c1ccc(C#CC#CC2CC2)cc1F)C(=O)NO | 1.25 | 0.31 | 0.31 | 3.33 | 1.42 | 11 | 25 | 2.5 (≈ 7.26 µM) | –
C[C@@H](O)[C@H](NC(=O)c1ccc(C#CC#CC2CC2)cc1N)C(=O)NO | 0.625 | 0.04 | 0.04 | – | – | – | – | 0.625 (≈ 1.83 µM) | –
C[C@@H](O)[C@H](NS(=O)(=O)c1ccc(C#CC#CC2CC2)cc1)C(=O)NO | 50 | 20 | 40 | – | – | – | – | 100 (≈ 276 µM) | –
Cc1cc(C#CC#CC2CC2)ccc1C(=O)N[C@H](C(=O)NO)[C@@H](C)O | 5 | 0.156 | 0.156 | – | – | – | – | 5 (≈ 14.7 µM) | –
CC(CCc1ccc(-c2ccccc2)cc1)(C(=O)Nc1ccccc1N)S(C)(=O)=O (stereo not given) | > 256 | > 256 | > 256 | – | – | – | – | > 256 | –
C[C@@H](O)[C@@H](CN(O)C=O)NC(=O)c1ccc(C#CC#CC2CC2)cc1 | > 256 | > 256 | > 256 | – | – | – | – | > 256 | –
CC(CCc1ccc(-c2ccccc2)cc1)(C(=O)NO)S(C)(=O)=O (racemic) | 0.31 | 0.4 | 1 | – | – | – | – | 0.31 (≈ 0.892 µM) | –
C[C@@H](O)[C@H](NC(=O)c1ccc(C#CC#CC2CC2)cc1OC(F)F)C(=O)NO | 10 | 0.31 | 0.156 | – | – | – | – | 10 (≈ 25.5 µM) | –
C[C@@H](O)[C@H](NC(=O)c1ccc(C#Cc2ccc(CN3CCOCC3)cc2)cc1)C(=O)NO | – | 0.156 | 0.156 | – | – | – | – | – | –
C[C@@H](O)[C@H](NC(=O)c1ccc(C#CC#CC2CC2)cc1[N+](=O)[O-])C(=O)NO | 5 | 0.4 | 0.6 | – | – | – | – | 5 (≈ 13.5 µM) | –
C[C@@H](O)[C@H](NC(=O)[C@@H]1CN(c2ccc(C#Cc3ccccc3)cc2)C(=O)O1)C(=O)NO | > 256 | > 256 | > 256 | – | – | – | – | > 256 | –
C[C@@H](O)[C@H](NC(=O)c1ccc(C#CC#CC2CC2)cn1)C(=O)NO | 10 | 0.625 | 1.25 | – | – | – | – | 20 (≈ 61.1 µM) | –
C[C@@H](O)[C@H](NC(=O)c1ccc(C#CC#CC2CC2)cc1C#N)C(=O)NO | 40 | 40 | 80 | – | – | – | – | 40 (≈ 114 µM) | –
C[C@@H](O)[C@H](NC(=O)c1ccc(C#CC#CC2CC2)cc1Cl)C(=O)NO | 6.25 | 0.048 | 0.192 | – | – | – | – | 6.25 (≈ 17.3 µM) | –
COc1cc(C#CC#CC2CC2)ccc1C(=O)N[C@H](C(=O)NO)[C@@H](C)O | 10 | 2.5 | 1.25 | – | – | – | – | 10 (≈ 28.1 µM) | –
C[C@@H](O)[C@H](NC(=O)c1ccc(C#CC#CC2CC2)cc1)C(=O)NO | 0.19 | 0.024 | 0.024 | 10.6 | 3.17 | 3 | 11 | 0.19 (≈ 0.582 µM) | –
C[C@@H](O)[C@H](NC(=O)c1ccc(C#CC#CC2CC2)c(F)c1)C(=O)NO | 0.63 | 0.31 | 0.4 | 44.4 | 2.38 | 1 | 15 | 0.63 (≈ 1.83 µM) | –
C[C@@H](O)[C@H](NC(=O)[C@H]1CN(c2ccc(-c3ccccc3)cc2)C(=O)O1)C(=O)NO | > 256 | > 256 | > 256 | – | – | – | – | > 256 | –
CC(C)(N)[C@H](NC(=O)c1ccc(C#CC#CC2CC2)c(F)c1)C(=O)NO | 0.31 | 0.019 | 0.019 | – | 2.25 | 0 | 16 | 0.31 (≈ 0.867 µM) | Stable
CC(C)(N)[C@H](NC(=O)c1ccc(C#CC#CC2CC2)cc1O)C(=O)NO | 0.625 | 0.078 | 0.078 | – | 1.58 | 0 | 22 | 0.625 (≈ 1.76 µM) | Stable
